Target: T1, mutant MGL (Homo sapiens, UniProt Q99685, L169S/L176S)
T1 sequence (Q99685 1-303 L169S/L176S): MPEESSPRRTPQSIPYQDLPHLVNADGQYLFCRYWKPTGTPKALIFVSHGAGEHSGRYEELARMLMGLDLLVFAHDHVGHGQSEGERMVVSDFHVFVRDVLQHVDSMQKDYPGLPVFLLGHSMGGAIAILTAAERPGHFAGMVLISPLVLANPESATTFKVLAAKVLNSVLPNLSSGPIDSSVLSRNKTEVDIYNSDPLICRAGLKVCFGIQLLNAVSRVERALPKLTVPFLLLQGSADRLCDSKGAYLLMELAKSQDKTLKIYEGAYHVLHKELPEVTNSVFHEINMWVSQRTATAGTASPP
Test: MGL ThermoFluor assay - mutant
Type: binding
Conditions: ThermoFluor concentration-response, read-out: MGL mutant ThermoFluor Kd

Row | Kd | SMILES
1 | 5.44 µM | O=C(c1cscn1)N1CCN(C2CN(C(=O)[C@@H]3C[C@H]3c3ccc(SC(F)(F)F)cc3)C2)CC1 (racemic) [Cpd 645, 1-(1,3-Thiazol-4-ylcarbonyl)-4-(1-{[(1RS,2RS)-2-{4-[(trifluoromethyl)sulfanyl]phenyl}cyclopropyl]carbonyl}azetidin-3-yl)piperazine]
2 | 0.0059 µM | O=C(c1ccccc1)N1CCN(C2CN(C(=O)c3ccc(C4CCCCC4)cc3)C2)CC1 [Cpd 1, 1-{1-[(4-Cyclohexylphenyl)carbonyl]azetidin-3-yl}-4-(phenylcarbonyl)-piperazine]
3 | 2.5 µM | Cn1ccnc1C(=O)N1CCN(C2CN(C(=O)c3ccc(C4CCCCC4)cc3)C2)CC1 [Cpd 3, 1-{1-[(4-Cyclohexylphenyl)carbonyl]azetidin-3-yl}-4-[(1-methyl-1H-imidazol-2-yl)carbonyl]piperazine]
4 | 0.143 µM | O=C(c1ccc(C2CCCCC2)cc1)N1CC(N2CCN(C(=O)c3ccccn3)CC2)C1 [Cpd 4, 1-{1-[(4-Cyclohexylphenyl)carbonyl]azetidin-3-yl}-4-(pyridin-2-ylcarbonyl)piperazine]
5 | 0.111 µM | O=C(c1ccc(-c2ccccc2)cc1)N1CC(N2CCN(C(=O)c3cncs3)CC2)C1 [Cpd 8, 1-[1-(Biphenyl-4-ylcarbonyl)azetidin-3-yl]-4-(1,3-thiazol-5-ylcarbonyl)piperazine]
6 | 0.556 µM | Cc1nc(C(=O)N2CCN(C3CN(C(=O)c4ccc(-c5ccccc5)cc4)C3)CC2)cs1 [Cpd 10, 1-[1-(Biphenyl-4-ylcarbonyl)azetidin-3-yl]-4-[(2-methyl-1,3-thiazol-4-yl)carbonyl]piperazine]
7 | 0.454 µM | Cn1cccc1C(=O)N1CCN(C2CN(C(=O)c3ccc(-c4ccccc4)cc3)C2)CC1 [Cpd 11, 1-[1-(Biphenyl-4-ylcarbonyl)azetidin-3-yl]-4-[(1-methyl-1H-pyrrol-2-yl)carbonyl]piperazine]
8 | 0.25 µM | Cc1ccc(C(=O)N2CCN(C3CN(C(=O)c4ccc(-c5ccccc5)cc4)C3)CC2)s1 [Cpd 14, 1-[1-(Biphenyl-4-ylcarbonyl)azetidin-3-yl]-4-[(5-methylthiophen-2-yl)carbonyl]piperazine]
9 | 0.286 µM | O=C(c1ccc(-c2ccccc2)cc1)N1CC(N2CCN(C(=O)c3ccc(Br)s3)CC2)C1 [Cpd 15, 1-[1-(Biphenyl-4-ylcarbonyl)azetidin-3-yl]-4-[(5-bromothiophen-2-yl)carbonyl]piperazine]
10 | > 76.7 µM | Cc1cc(Br)ccc1C(=O)N1CC(N2CCN(C(=O)c3ccccc3)CC2)C1 [Cpd 22, 1-{1-[(4-Bromo-2-methylphenyl)carbonyl]azetidin-3-yl}-4-(phenylcarbonyl)piperazine]
11 | 5 µM | COc1cc(C(=O)N2CC(N3CCN(C(=O)c4cscn4)CC3)C2)ccc1Br [Cpd 23, 1-{1-[(4-Bromo-3-methoxyphenyl)carbonyl]azetidin-3-yl}-4-(1,3-thiazol-4-ylcarbonyl)piperazine]
12 | 5 µM | COc1cc(C(=O)N2CC(N3CCN(C(=O)c4ccccc4)CC3)C2)ccc1Br [Cpd 24, 1-{1-[(4-Bromo-3-methoxyphenyl)carbonyl]azetidin-3-yl}-4-(phenylcarbonyl)piperazine]
13 | 10 µM | O=C(c1cscn1)N1CCN(C2CN(C(=O)c3ccc(Br)cc3Cl)C2)CC1 [Cpd 25, 1-{1-[(4-Bromo-2-chlorophenyl)carbonyl]azetidin-3-yl}-4-(1,3-thiazol-4-ylcarbonyl)piperazine]
14 | 4.55 µM | O=C(c1ccccc1)N1CCN(C2CN(C(=O)c3ccc(Br)cc3)C2)CC1 [Cpd 27, 1-{1-[(4-Bromophenyl)carbonyl]azetidin-3-yl}-4-(phenylcarbonyl)piperazine]
15 | 0.37 µM | O=C(c1ccccc1)N1CCN(C2CN(C(=O)c3ccc(-n4cccc4)cc3)C2)CC1 [Cpd 28, 1-(Phenylcarbonyl)-4-(1-{[4-(1H-pyrrol-1-yl)phenyl]carbonyl}azetidin-3-yl)piperazine]
16 | 0.1 µM | O=C(c1ccccc1)N1CCN(C2CN(C(=O)c3ccc(N4CCCC4)cc3)C2)CC1 [Cpd 29, 1-(Phenylcarbonyl)-4-{1-[(4-pyrrolidin-1-ylphenyl)carbonyl]azetidin-3-yl}piperazine]
17 | 0.118 µM | CCN(CC)c1ccc(C(=O)N2CC(N3CCN(C(=O)c4ccccc4)CC3)C2)cc1 [Cpd 30, N,N-Diethyl-4-({3-[4-(phenylcarbonyl)piperazin-1-yl]azetidin-1-yl}carbonyl)aniline]
18 | 1.43 µM | CN(C)c1ccc(C(=O)N2CC(N3CCN(C(=O)c4ccccc4)CC3)C2)cc1 [Cpd 31, N,N-Dimethyl-4-({3-[4-(phenylcarbonyl)piperazin-1-yl]azetidin-1-yl}carbonyl)aniline]
19 | 0.192 µM | O=C(c1ccccc1)N1CCN(C2CN(C(=O)c3ccc(Oc4ccccc4)cc3)C2)CC1 [Cpd 32, 1-{1-[(4-Phenoxyphenyl)carbonyl]azetidin-3-yl}-4-(phenylcarbonyl)piperazine]

Row | Kd | SMILES
20 | 0.0091 µM | O=C(c1ccccc1)N1CCN(C2CN(C(=O)c3ccc(-c4ccc(F)cc4)cc3)C2)CC1 [Cpd 33, 1-{1-[(4′-Fluorobiphenyl-4-yl)carbonyl]azetidin-3-yl}-4-(phenylcarbonyl)piperazine]
21 | 0.588 µM | COc1ccc(-c2ccc(C(=O)N3CC(N4CCN(C(=O)c5ccccc5)CC4)C3)cc2)cc1 [Cpd 34, 1-{1-[(4′-Methoxybiphenyl-4-yl)carbonyl]azetidin-3-yl}-4-(phenylcarbonyl)piperazine]
22 | 0.0833 µM | O=C(c1ccccc1)N1CCN(C2CN(C(=O)c3ccc(OCc4ccccc4)cc3)C2)CC1 [Cpd 35, 1-(1-{[4-(Benzyloxy)phenyl]carbonyl}azetidin-3-yl)-4-(phenylcarbonyl)piperazine]
23 | 0.037 µM | O=C(c1ccccc1)N1CCN(C2CN(C(=O)c3ccc(-c4ccccc4Cl)cc3)C2)CC1 [Cpd 36, 1-{1-[(2′-Chlorobiphenyl-4-yl)carbonyl]azetidin-3-yl}-4-(phenylcarbonyl)piperazine]
24 | 0.182 µM | CC(C)n1c(C(F)(F)F)nc2cc(C(=O)N3CC(N4CCN(C(=O)c5ccccc5)CC4)C3)ccc21 [Cpd 38, 1-(1-Methylethyl)-5-({3-[4-(phenylcarbonyl)piperazin-1-yl]azetidin-1-yl}carbonyl)-2-(trifluoromethyl)-1H-benzimidazole]
25 | 0.0833 µM | CCCn1ccc2cc(C(=O)N3CC(N4CCN(C(=O)c5ccccc5)CC4)C3)ccc21 [Cpd 42, 5-({3-[4-(Phenylcarbonyl)piperazin-1-yl]azetidin-1-yl}carbonyl)-1-propyl-1H-indole]
26 | 1 µM | O=C(c1ccccc1)N1CCN(C2CN(C(=O)c3ccc(-n4cnc5ccccc54)cc3)C2)CC1 [Cpd 48, 1-[4-({3-[4-(Phenylcarbonyl)piperazin-1-yl]azetidin-1-yl}carbonyl)phenyl]-1H-benzimidazole]
27 | 6.67 µM | O=C(c1ccccc1)N1CCN(C2CN(C(=O)c3ccc(F)cc3)C2)CC1 [Cpd 49, 1-{1-[(4-Fluorophenyl)carbonyl]azetidin-3-yl}-4-(phenylcarbonyl)piperazine]
28 | 10 µM | O=C(c1ccccc1)N1CCN(C2CN(C(=O)c3cnc(NCc4ccccc4)s3)C2)CC1 [Cpd 50, N-Benzyl-5-({3-[4-(phenylcarbonyl)piperazin-1-yl]azetidin-1-yl}carbonyl)-1,3-thiazol-2-amine]
29 | 0.25 µM | Cn1c2ccccc2c2cc(C(=O)N3CC(N4CCN(C(=O)c5ccccc5)CC4)C3)ccc21 [Cpd 51, 9-Methyl-3-({3-[4-(phenylcarbonyl)piperazin-1-yl]azetidin-1-yl}carbonyl)-9H-carbazole]
30 | 3.33 µM | O=C(c1ccccc1)N1CCN(C2CN(C(=O)c3ccccc3NCc3ccccc3)C2)CC1 [Cpd 52, N-Benzyl-2-({3-[4-(phenylcarbonyl)piperazin-1-yl]azetidin-1-yl}carbonyl)aniline]
31 | 0.1 µM | O=C(c1ccccc1)N1CCN(C2CN(C(=O)c3ccc(N4CCCCC4)cc3)C2)CC1 [Cpd 53, 1-(Phenylcarbonyl)-4-{1-[(4-piperidin-1-ylphenyl)carbonyl]azetidin-3-yl}piperazine]
32 | 25 µM | O=C(c1ccccc1)N1CCN(C2CN(C(=O)c3ccc4[nH]c5c(c4c3)CCCC5)C2)CC1 [Cpd 55, 6-({3-[4-(Phenylcarbonyl)piperazin-1-yl]azetidin-1-yl}carbonyl)-2,3,4,9-tetrahydro-1H-carbazole]
33 | 0.333 µM | N#Cc1cccc(-c2ccc(C(=O)N3CC(N4CCN(C(=O)c5ccccc5)CC4)C3)cc2)c1 [Cpd 76, 4′-({3-[4-(Phenylcarbonyl)piperazin-1-yl]azetidin-1-yl}carbonyl)biphenyl-3-carbonitrile]
34 | 0.08 µM | O=C(c1ccccc1)N1CCN(C2CN(C(=O)c3ccc(-c4ccc(Cl)cc4)cc3)C2)CC1 [Cpd 78, 1-{1-[(4′-Chlorobiphenyl-4-yl)carbonyl]azetidin-3-yl}-4-(phenylcarbonyl)piperazine]
35 | 0.0266 µM | O=C(c1ccccc1)N1CCN(C2CN(C(=O)c3ccc(-c4cc(Cl)cc(Cl)c4)cc3)C2)CC1 [Cpd 79, 1-{1-[(3′,5′-Dichlorobiphenyl-4-yl)carbonyl]azetidin-3-yl}-4-(phenylcarbonyl)piperazine]
36 | 49.5 µM | O=C(c1ccccc1)N1CCN(C2CN(C(=O)c3cncc(-c4ccccc4)c3)C2)CC1 [Cpd 80, 1-(Phenylcarbonyl)-4-{1-[(5-phenylpyridin-3-yl)carbonyl]azetidin-3-yl}piperazine]
37 | 0.0667 µM | O=C(c1ccccc1)N1CCN(C2CN(C(=O)c3ccc(-c4ccccc4)c(F)c3)C2)CC1 [Cpd 81, 1-{1-[(2-Fluorobiphenyl-4-yl)carbonyl]azetidin-3-yl}-4-(phenylcarbonyl)piperazine]
38 | 0.571 µM | N#Cc1ccc(-c2ccc(C(=O)N3CC(N4CCN(C(=O)c5ccccc5)CC4)C3)cc2)cc1 [Cpd 82, 4′-({3-[4-(Phenylcarbonyl)piperazin-1-yl]azetidin-1-yl}carbonyl)biphenyl-4-carbonitrile]
